“And” between values parts separate entries of the source, which are not always exact repeats. Identical values can stand only once. Inconclusive results and toxic doses are left out. Cut-off read from the data, not from the text of the source: active = T/C of 150% or more; inactive = T/C below 125%.
System: L1210 leukemia ip in BDF1 mice, survival T/C
Assay: NCI In Vivo Anticancer Drug Screen. Data for tumor model L1210 Leukemia (intraperitoneal) in B6D2F1 (BDF1) mice
Settings: endpoint: mean survival time, higher = longer survival
In short: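 Survival endpoint. Drug-treated group vs vehicle group, expressed as T divided by C. Tumor passaged by transplantation.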

[1] = dose: 100.0 mg/kg/injection, schedule: Q01DX001 (ip), vehicle: other
[2] = dose: 200.0 mg/kg/injection, schedule: Q01DX001 (ip), vehicle: other
[3] = dose: 400.0 mg/kg/injection, schedule: Q01DX001 (ip), vehicle: other
[4] = dose: 100.0 mg/kg/injection, schedule: Q01DX009 (ip), vehicle: Klucel (hydroxypropylcellulose) (HPC)
[5] = dose: 100.0 mg/kg/injection, schedule: Q04DX003 (ip), vehicle: Klucel (hydroxypropylcellulose) (HPC)
[6] = dose: 200.0 mg/kg/injection, schedule: Q01DX009 (ip), vehicle: Klucel (hydroxypropylcellulose) (HPC)
[7] = dose: 200.0 mg/kg/injection, schedule: Q04DX003 (ip), vehicle: Klucel (hydroxypropylcellulose) (HPC)
[8] = dose: 400.0 mg/kg/injection, schedule: Q01DX009 (ip), vehicle: Klucel (hydroxypropylcellulose) (HPC)
[9] = dose: 400.0 mg/kg/injection, schedule: Q04DX003 (ip), vehicle: Klucel (hydroxypropylcellulose) (HPC)
[10] = dose: 100.0 mg/kg/injection, schedule: Q01DX001 (ip), vehicle: carboxymethylcellulose (CMC)
[11] = dose: 200.0 mg/kg/injection, schedule: Q01DX001 (ip), vehicle: carboxymethylcellulose (CMC)
[12] = dose: 400.0 mg/kg/injection, schedule: Q01DX001 (ip), vehicle: carboxymethylcellulose (CMC)
[13] = dose: 100.0 mg/kg/injection, schedule: Q01DX009 (ip), vehicle: saline with Tween-80
[14] = dose: 200.0 mg/kg/injection, schedule: Q01DX009 (ip), vehicle: saline with Tween-80
[15] = dose: 100.0 mg/kg/injection, schedule: Q04DX003 (ip), vehicle: saline
[16] = dose: 100.0 mg/kg/injection, schedule: Q04DX003 (ip), vehicle: saline with Tween-80
[17] = dose: 200.0 mg/kg/injection, schedule: Q04DX003 (ip), vehicle: saline with Tween-80
[18] = dose: 400.0 mg/kg/injection, schedule: Q01DX009 (ip), vehicle: saline with Tween-80
[19] = dose: 400.0 mg/kg/injection, schedule: Q04DX003 (ip), vehicle: saline with Tween-80

Measured: T/C

Nc1nc2c(ncn2C(/C=N/Nc2ccccc2)OC(/C=N/Nc2ccccc2)CO)c(=O)[nH]1 (stereo not given)
inactive: [1] 98 % of control | [2] 106 % of control | [3] 108 % of control

CC(=O)NC1=C(Nc2ccc(-c3ccc(NC4=C(NC(C)=O)C(=O)c5ccccc5C4=O)cc3)cc2)C(=O)c2ccccc2C1=O
inactive: dose: 3.12 mg/kg/injection, schedule: Q04DX003 (ip), vehicle: saline 96 % of control | dose: 4.5 mg/kg/injection, schedule: Q01DX009 (ip), vehicle: saline 101 % of control | dose: 6.25 mg/kg/injection, schedule: Q04DX003 (ip), vehicle: saline 98 % of control | dose: 9.0 mg/kg/injection, schedule: Q01DX009 (ip), vehicle: saline 101 % of control | dose: 12.5 mg/kg/injection, schedule: Q01DX001 (ip), vehicle: saline 95 % of control | dose: 12.5 mg/kg/injection, schedule: Q04DX003 (ip), vehicle: saline 98 % of control | dose: 18.0 mg/kg/injection, schedule: Q04DX003 (ip), vehicle: saline 87 % of control

Clc1nc(Sc2ccc(Br)cc2)c(Cl)c(Sc2ccc(Br)cc2)n1
inactive: dose: 62.5 mg/kg/injection, schedule: Q01DX001 (ip), vehicle: Klucel (hydroxypropylcellulose) (HPC) 95 % of control and 89 % of control | dose: 125.0 mg/kg/injection, schedule: Q01DX001 (ip), vehicle: Klucel (hydroxypropylcellulose) (HPC) 94 % of control | dose: 250.0 mg/kg/injection, schedule: Q01DX001 (ip), vehicle: Klucel (hydroxypropylcellulose) (HPC) 94 % of control and 98 % of control

COC1OC2COc3ccccc3OC2C(N)C1N(C)c1ccccc1 (stereo not given)
inactive: dose: 18.75 mg/kg/injection, schedule: Q01DX001 (ip), vehicle: saline with Tween-80 98 % of control | dose: 37.5 mg/kg/injection, schedule: Q01DX001 (ip), vehicle: saline with Tween-80 96 % of control | dose: 75.0 mg/kg/injection, schedule: Q01DX001 (ip), vehicle: saline with Tween-80 93 % of control

CCCCC(CC)C(=O)CC(C)=O (stereo not given)
inactive: dose: 50.0 mg/kg/injection, schedule: Q01DX001 (ip), vehicle: saline 103 % of control | dose: 100.0 mg/kg/injection, schedule: Q01DX001 (ip), vehicle: saline 95 % of control | dose: 200.0 mg/kg/injection, schedule: Q01DX001 (ip), vehicle: saline 103 % of control | dose: 400.0 mg/kg/injection, schedule: Q01DX001 (ip), vehicle: saline 97 % of control

OC1CC(c2ccccc2)C1(c1ccccc1)c1ccccc1 (stereo not given)
inactive: dose: 75.0 mg/kg/injection, schedule: Q01DX001 (ip), vehicle: other 104 % of control | dose: 150.0 mg/kg/injection, schedule: Q01DX001 (ip), vehicle: other 102 % of control | dose: 300.0 mg/kg/injection, schedule: Q01DX001 (ip), vehicle: other 94 % of control

CCOC(CNC(=O)c1cccc(S(=O)(=O)F)c1)OCC
inactive: dose: 100.0 mg/kg/injection, schedule: Q04DX003 (ip), vehicle: saline + alcohol 98 % of control | dose: 200.0 mg/kg/injection, schedule: Q04DX003 (ip), vehicle: saline + alcohol 96 % of control

CCCCNC(=O)Nc1ccc(OC)cc1Cl
inactive: [4] 102 % of control | [5] 90 % of control | [6] 106 % of control | [7] 97 % of control | [8] 87 % of control | [9] 92 % of control

CC(=O)OC1C(C)OC(n2cnc3c(=O)[nH]cnc32)C1OC(C)=O (stereo not given)
inactive: dose: 50.0 mg/kg/injection, schedule: Q01DX001 (ip), vehicle: carboxymethylcellulose (CMC) 106 % of control | [10] 106 % of control | [11] 108 % of control | [12] 101 % of control

CCC1(c2ccccc2)C(=O)N(C)C(=O)N(CBr)C1=O (stereo not given)
inactive: [13] 109 % of control | dose: 100.0 mg/kg/injection, schedule: Q04DX002 (ip), vehicle: saline with Tween-80 92 % of control | [14] 106 % of control | dose: 200.0 mg/kg/injection, schedule: Q04DX002 (ip), vehicle: saline with Tween-80 98 % of control | dose: 400.0 mg/kg/injection, schedule: Q04DX002 (ip), vehicle: saline with Tween-80 103 % of control

CNc1nc2ncn(C)c2c(=O)[nH]1
inactive: dose: 100.0 mg/kg/injection, schedule: Q01DX009 (ip), vehicle: saline 97 % of control | dose: 200.0 mg/kg/injection, schedule: Q01DX009 (ip), vehicle: saline 98 % of control | dose: 400.0 mg/kg/injection, schedule: Q01DX009 (ip), vehicle: saline 98 % of control

O=C1Nc2ccccc2C12Nc1cccnc1N2 (stereo not given)
inactive: dose: 100.0 mg/kg/injection, schedule: Q01DX001 (ip), vehicle: saline with Tween-80 97 % of control | dose: 200.0 mg/kg/injection, schedule: Q01DX001 (ip), vehicle: saline with Tween-80 87 % of control

CS(C)(=O)=C/C(=C\C(=O)c1ccccc1)c1ccccc1
inactive: dose: 25.0 mg/kg/injection, schedule: Q04DX003 (ip), vehicle: saline 100 % of control | dose: 50.0 mg/kg/injection, schedule: Q04DX003 (ip), vehicle: saline 103 % of control | [15] 97 % of control

CCCCCCCCCCCCOC(=O)C(Cl)(Cl)Cl
inactive: [1] 93 % of control | dose: 100.0 mg/kg/injection, schedule: Q04DX003 (ip), vehicle: other 102 % of control | [2] 96 % of control | dose: 200.0 mg/kg/injection, schedule: Q04DX003 (ip), vehicle: other 96 % of control | [3] 93 % of control | dose: 400.0 mg/kg/injection, schedule: Q04DX003 (ip), vehicle: other 97 % of control

CN1CCCC(OC(=O)c2cc3ccccc3s2)C1 (stereo not given)
inactive: [10] 101 % of control | [11] 106 % of control | [12] 98 % of control

NC(=O)NNC(=O)c1ccccc1
inactive: [4] 100 % of control | [5] 96 % of control | [6] 104 % of control | [7] 94 % of control | [8] 98 % of control | [9] 100 % of control

CCN(CC)CCOc1ccc(N=N/C(C(C)=O)=C(\C)O)cc1
inactive: dose: 25.0 mg/kg/injection, schedule: Q04DX002 (ip), vehicle: saline 93 % of control and 96 % of control | dose: 50.0 mg/kg/injection, schedule: Q04DX002 (ip), vehicle: saline 101 % of control and 104 % of control

CC(Oc1nc2c(c(=O)n(C)c(=O)n2C)n1C)C1CCCC1 (stereo not given)
inactive: dose: 50.0 mg/kg/injection, schedule: Q01DX001 (ip), vehicle: other 103 % of control | [1] 100 % of control

CNC(=O)Oc1ccccc1C(C)C
inactive: dose: 100.0 mg/kg/injection, schedule: Q04DX002 (ip), vehicle: Klucel (hydroxypropylcellulose) (HPC) 91 % of control | dose: 200.0 mg/kg/injection, schedule: Q04DX002 (ip), vehicle: Klucel (hydroxypropylcellulose) (HPC) 94 % of control | dose: 400.0 mg/kg/injection, schedule: Q04DX002 (ip), vehicle: Klucel (hydroxypropylcellulose) (HPC) 95 % of control and 98 % of control

NS(=O)(=O)c1ccc(NC(=O)Nc2ccc(Cl)cc2[N+](=O)[O-])cc1
inactive: [4] 94 % of control | [6] 91 % of control | [8] 86 % of control

CC(O)/C(=N/Nc1ccc([N+](=O)[O-])cc1[N+](=O)[O-])C(=O)O (stereo not given)
inactive: dose: 50.0 mg/kg/injection, schedule: Q01DX009 (ip), vehicle: Klucel (hydroxypropylcellulose) (HPC) 106 % of control | [4] 96 % of control | [5] 91 % of control | [6] 96 % of control | [7] 88 % of control

Cc1ccc(/C=C/C(=O)c2ccc(Cl)cc2)cc1
inactive: [13] 108 % of control | [16] 93 % of control | [14] 94 % of control | [17] 101 % of control | [18] 97 % of control | [19] 91 % of control

OC1c2ccccc2C(c2ccccc2)C1c1ccccc1 (stereo not given)
inactive: [17] 87 % of control | [19] 90 % of control

OC(c1ccccc1)c1ccccc1
inactive: [15] 95 % of control | dose: 200.0 mg/kg/injection, schedule: Q04DX003 (ip), vehicle: saline 100 % of control | dose: 400.0 mg/kg/injection, schedule: Q04DX003 (ip), vehicle: saline 97 % of control

O=[N+]([O-])c1cc(Br)cc(Br)c1
inactive: [13] 97 % of control | [16] 91 % of control | [14] 99 % of control | [17] 94 % of control | [18] 93 % of control | [19] 93 % of control
